These results are taken from patent US11000481B2, “Composite preparation of mosapride and rabeprazole” (KOREA UNITED PHARM. INC., priority 2015, dated 2021).

SMILES strings stand for the structures. Like-named read-outs stand apart in the source and are kept apart here.

Data set [1] is described as follows: Stability of rabeprazole sodium depending on pH. In kind it is physicochemical. The conditions noted are these: condition of pH 9.0. An excerpt:
Accordingly, it was difficult to conduct a dissolution test for the rabeprazole sodium drug in general conditions.

For data set [2] the following is noted: exposed to an acidic condition of pH 6.8 or below; conventionally known; cited from earlier work.

For `COCCCOc1ccnc(C[S+]([O-])c2nc3ccccc3[nH]2)c1C` (centres unmarked) [rabeprazole sodium], the “Stability of rabeprazole sodium” value is on record as “highly stable” in data set [1] and “degraded” in data set [2].
